Source: ChEMBL document CHEMBL5370686, “Design of Novel Series of Antimalarial PMX Inhibitors with Increased Half-Life via Molecular Property Optimization” (ACS Med Chem Lett, 2023)
≈ marks a conversion by molar mass, not a printed value.

Assays:
[1] = Intrinsic clearance in human hepatocytes assessed per 10^6 cells at 0.5 uM measured after 120 min by HRMS method; assay type: ADME, cell-based, Hepatocyte; settings: read-out: CLH
[2] = Lipophilicity, log D of the compound in octanol/phosphate buffer at pH 7.4 incubated for 90 mins by shake flask method based LC-MS analysis; assay type: physicochemical; settings: for logD at 1.5 h: octanol/phosphate buffer, pH 7.4
[3] = biological target: Cathepsin D (Homo sapiens, UniProt P07339); test: Inhibition of human Cathepsin D using Mca-GKPILFFRLK(Dnp)-D-R-NH2 as substrate preincubated for 30 mins followed by substrate addition and measured after 60 mins by FRET assay; assay type: toxicity
[4] = biological target: Plasmepsin X (Plasmodium falciparum (isolate 3D7), UniProt Q8IAS0); test: Inhibition of Plasmodium falciparum Plasmepsin X using Dabcyl-GSMLEVENDAEG-EDANS as substrate preincubated for 30 mins followed by substrate addition and measured every 2 mins for 30 mins by FRET assay
[5] = system: Cathepsin D versus Plasmepsin X; test: Selectivity ratio of IC50 for human Cathepsin D to IC50 for Plasmodium falciparum Plasmepsin X; assay type: toxicity; settings: read-out: Ratio IC50
[6] = system: Plasmodium falciparum; test: Antimalarial activity against Plasmodium falciparum 3D7 by SYBR green 1 assay; assay type: functional, organism-based; settings: for IC50: Plasmodium falciparum, 3D7
[7] = Solubility of compound in FeSSIF at pH 5.8 incubated for 1 hr by LC/MS analysis; assay type: physicochemical
[8] = Drug metabolism in human hepatocytes assessed as (S)-4-(2,3'-dichloro-[1,1'-biphenyl]-3-yl)-4-methyltetrahydropyrimidin-2(1H)-imine formation at 2 uM measured after 120 mins by UHPLC-MS analysis; assay type: ADME, cell-based, Hepatocyte; settings: 2 h
[9] = Drug metabolism in human hepatocytes at 2 uM measured after 120 mins by UHPLC-MS analysis; assay type: ADME, cell-based, Hepatocyte; settings: 2 h
[10] = Apparent oral bioavailability in Sprague-Dawley rat plasma at 10 mg/kg administered via gavage by LC-MS/MS analysis; assay type: ADME, organism-based; settings: read-out: Fapp
[11] = AUC in Sprague-Dawley rat plasma at 10 mg/kg, po administered via gavage by LC-MS/MS analysis; assay type: ADME, organism-based; design: dose 10 mg/kg, route po
[12] = Half-life in Sprague-Dawley rat plasma at 1 mg/kg, iv administered via bolus at LC-MS/MS analysis; assay type: ADME, organism-based
[13] = AUC in Sprague-Dawley rat plasma at 1 mg/kg, iv administered via bolus at LC-MS/MS analysis; assay type: ADME, organism-based; design: dose 1 mg/kg, route iv
[14] = Cmax in Sprague-Dawley rat plasma at 10 mg/kg, po administered via gavage by LC-MS/MS analysis; assay type: ADME, organism-based; design: dose 10 mg/kg, route po
[15] = Clearance in Sprague-Dawley rat plasma at 1 mg/kg, iv administered via bolus by LC-MS/MS analysis; assay type: ADME, organism-based
[16] = Volume of distribution at steady state in Sprague-Dawley rat plasma at 1 mg/kg, iv administered via bolus by LC-MS/MS analysis; assay type: ADME, organism-based; settings: read-out: Vdss
[17] = Tmax in Sprague-Dawley rat plasma at 10 mg/kg, po administered via gavage by LC-MS/MS analysis; assay type: ADME, organism-based
[18] = Drug level treated with (S)-6-(2,3'-dichloro-[1,1'-biphenyl]-3-yl)-2-imino-6-methyl-3-((2S,4S)-2-methyltetrahydro-2H-pyran-4-yl)tetrahydropyrimidin-4(1H)-one in human hepatocytes at 2 uM measured after 120 mins by UHPLC-MS analysis; assay type: ADME, cell-based, Hepatocyte

Plasmepsin X, sequence (Q8IAS0 whole entry): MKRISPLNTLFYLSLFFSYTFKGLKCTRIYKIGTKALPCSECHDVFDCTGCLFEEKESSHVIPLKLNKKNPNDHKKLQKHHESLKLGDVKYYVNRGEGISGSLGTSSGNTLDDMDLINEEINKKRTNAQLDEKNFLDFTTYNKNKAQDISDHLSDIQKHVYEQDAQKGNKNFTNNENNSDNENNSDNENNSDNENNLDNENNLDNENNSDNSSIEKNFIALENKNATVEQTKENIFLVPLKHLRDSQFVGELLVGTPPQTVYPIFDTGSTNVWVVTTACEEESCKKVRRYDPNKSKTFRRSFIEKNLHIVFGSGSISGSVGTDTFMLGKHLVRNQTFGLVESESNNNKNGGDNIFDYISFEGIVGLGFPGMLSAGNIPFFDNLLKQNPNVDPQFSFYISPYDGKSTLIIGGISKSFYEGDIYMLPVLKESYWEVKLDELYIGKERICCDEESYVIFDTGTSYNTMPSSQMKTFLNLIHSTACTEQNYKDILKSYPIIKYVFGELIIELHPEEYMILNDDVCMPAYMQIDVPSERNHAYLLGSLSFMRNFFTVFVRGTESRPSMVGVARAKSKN
Cathepsin D, sequence (P07339 65-162 limits assumed): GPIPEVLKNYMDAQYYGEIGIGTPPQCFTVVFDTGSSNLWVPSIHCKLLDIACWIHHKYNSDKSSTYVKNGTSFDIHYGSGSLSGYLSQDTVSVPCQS
Cathepsin D, sequence (P07339 169-412 limits assumed): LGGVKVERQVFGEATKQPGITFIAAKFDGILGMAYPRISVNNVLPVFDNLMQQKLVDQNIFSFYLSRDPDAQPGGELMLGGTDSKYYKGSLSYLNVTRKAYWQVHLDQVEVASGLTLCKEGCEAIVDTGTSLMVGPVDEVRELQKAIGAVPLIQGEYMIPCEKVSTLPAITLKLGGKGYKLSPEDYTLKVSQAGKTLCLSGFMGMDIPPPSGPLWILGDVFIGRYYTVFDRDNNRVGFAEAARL

Row | SMILES | hepatocyte CLint at 0.5 µM [1] [µL/min/1e6 cells] | logD at 1.5 h [2] | IC50 [4] [nM] | IC50 [6] [nM] | solubility at 1 h [7] [µM] | Drug metabolism [8] | Drug metabolism [9] | AUC [11] [µM·h] | half-life [12] [h] | AUC [13] [µM·h] | Cmax [14] [nM] | clearance [15] [mL/min/kg] | Vd [16] [L/kg] | Tmax [17] [h] | logD ([2]; octanol/water, pH 7.4, 1.5 h, BLD = below limit of detection) | Drug uptake [18] | IC50 [3] [nM] | selectivity ratio [5] | FIC50 [6] [nM] | bioavailability [10] [%]
1 | C[C@H]1C[C@@H](N2C(=N)N[C@](C)(c3cccc(-c4ccc(C5CC5)nc4)c3Cl)CC2=O)CCS1(=O)=O | < 3 | 2 | 12.8 | 87.5 | – | – | – | – | – | – | – | – | – | – | – | – | 2680 | 206 | 27.1 | –
2 | C[C@H]1C[C@@H](N2C(=N)N[C@](C)(c3cccc(-c4ccc(F)cc4F)c3Cl)CC2=O)CCN1C | 8.2 | 1.8 | 263 | 93.5 | > 1500 | – | – | – | – | – | – | – | – | – | – | – | 3820 | 14.5 | 37.4 | –
3 | C[C@H]1C[C@@H](N2C(=N)N[C@](C)(c3cccc(-c4ccc(OC(F)F)nc4)c3Cl)CC2=O)CCS1(=O)=O | < 3 | 2.1 | 10.8 | 84.9 | 1030 (≈ 543 µg/mL) | – | – | – | – | – | – | – | – | – | – | – | 593 | 53.9 | 23.4 | –
4 | C[C@H]1C[C@@H](N2C(=N)N[C@](C)(c3cccc(NC(=O)c4cccc(C#N)c4)c3Cl)CC2=O)CCO1 | 4 | 1.3 | 7.6 | 8.3 | 1020 (≈ 490 µg/mL) | – | – | – | – | – | – | – | – | – | – | – | – | 555 | 7.7 | 18
5 | C[C@H]1C[C@@H](N2C(=N)N[C@](C)(c3cccc(-c4ccc(OC(F)(F)F)nc4)c3Cl)CC2=O)CCS1(=O)=O | < 3 | 2.4 | 11.2 | 107 | 697 (≈ 380 µg/mL) | – | – | 4.68 | 9.2 | 1.6 | 423 | 20 | 13.1 | 4 | – | – | 1540 | 140 | 27.9 | 29
6 | C[C@H]1C[C@@H](N2C(=N)N[C@](C)(c3cccc(-c4ccc(F)cc4F)c3Cl)CC2=O)CCS1(=O)=O | 3.3 | 2.4 | 10.2 | 74.1 | 1130 (≈ 558 µg/mL) | – | – | – | – | – | – | – | – | – | – | – | 366 | 36.5 | 16.7 | –
7 | C[C@H]1C[C@@H](N2C(=N)N[C@](C)(c3cccc(-c4ccc(OC(F)(F)F)cc4Cl)c3Cl)CC2=O)CCO1 | < 3 | – | 9.5 | 78.1 | 833 (≈ 442 µg/mL) | – | – | – | – | – | – | – | – | – | Bld | – | 1590 | 176 | 0.8 | –
8 | C[C@H]1C[C@@H](N2C(=N)N[C@](C)(c3cccc(-c4cnn5cccnc45)c3Cl)CC2=O)CCO1 | 18 | 1.2 | 22.4 | 137 | > 1500 | – | – | – | – | – | – | – | – | – | – | – | 1300 | 59 | 131.3 | –

Now from value to compound, other results behind:

Row | hepatocyte CLint at 0.5 µM [1] [µL/min/1e6 cells] | logD at 1.5 h [2] | IC50 [4] [nM] | IC50 [6] [nM] | solubility at 1 h [7] [µM] | Drug metabolism [8] | Drug metabolism [9] | AUC [11] [µM·h] | half-life [12] [h] | AUC [13] [µM·h] | Cmax [14] [nM] | clearance [15] [mL/min/kg] | Vd [16] [L/kg] | Tmax [17] [h] | logD ([2]; octanol/water, pH 7.4, 1.5 h, BLD = below limit of detection) | Drug uptake [18] | SMILES | IC50 [3] [nM] | selectivity ratio [5] | FIC50 [6] [nM] | bioavailability [10] [%]
9 | 16 | 1.5 | 2260 | 657 | > 1500 | – | – | – | – | – | – | – | – | – | – | – | CN(C)[C@H]1C[C@@H](N2C(=N)N[C@](C)(c3cccc(-c4ccc(F)cc4F)c3Cl)CC2=O)C1 | 28300 | 12.5 | 251.5 | –
10 | 8.2 | 2.4 | 56.5 | 323 | 1390 (≈ 624 µg/mL) | – | – | – | – | – | – | – | – | – | – | – | C[C@@]1(c2cccc(-c3cccc(Cl)c3)c2Cl)CC(=O)N([C@H]2CCOC[C@@H]2O)C(=N)N1 | 226 | 3.9 | 135.6 | –
11 | 18 | 2.9 | 9.4 | 95 | 1010 (≈ 451 µg/mL) | – | – | – | – | – | – | – | – | – | – | – | C[C@H]1C[C@@H](N2C(=N)N[C@](C)(c3cccc(-c4ccc(F)cc4F)c3Cl)CC2=O)CCO1 | 644 | 71 | 21.3 | –
12 | 4.7 | 2.4 | 23.3 | 280 | – | – | – | – | – | – | – | – | – | – | – | – | C[C@@]1(c2cccc(-c3ccc(F)cc3F)c2Cl)CC(=O)N([C@H]2CCC(F)(F)[C@@H](O)C2)C(=N)N1 | 396 | 17 | 32.5 | –
13 | 46 | 2.5 | 11.2 | 26.1 | 378 (≈ 202 µg/mL) | – | – | – | – | – | – | – | – | – | – | – | C[C@H]1C[C@@H](N2C(=N)N[C@](C)(c3cccc(-c4ccc5ncn(CC(F)(F)F)c5c4)c3Cl)CC2=O)CCO1 | 3.9 | 0.3 | 12.4 | –
14 | 5.7 | 3.4 | 5.2 | 66.2 | 69 (≈ 33.2 µg/mL) | – | – | – | – | – | – | – | – | – | – | – | C[C@H]1C[C@@H](N2C(=N)N[C@](C)(c3cccc(-c4ccc(Cl)cc4Cl)c3Cl)CC2=O)CCO1 | 771 | 154 | 3.5 | –
15 | 26 | 3.7 | 7.7 | 92.3 | 664 (≈ 296 µg/mL) | Metabolite_Detected | Metabolite_Detected | – | – | – | – | – | – | – | – | – | C[C@H]1C[C@@H](N2C(=N)N[C@](C)(c3cccc(-c4cccc(Cl)c4)c3Cl)CC2=O)CCO1 | 10.8 | 1.3 | 16.2 | –
16 | 75 | 2.5 | 8.8 | 21.6 | > 1500 | – | – | – | – | – | – | – | – | – | – | – | C[C@H]1C[C@@H](N2C(=N)N[C@](C)(c3cccc(-c4cncc(Cl)c4)c3Cl)CC2=O)CCO1 | 32.3 | 3.5 | 15.2 | –
17 | 29 | 3 | 10.9 | 105 | 562 (≈ 251 µg/mL) | – | – | – | – | – | – | – | – | – | – | – | C[C@H]1C[C@@H](N2C(=N)N[C@](C)(c3cccc(-c4ccccc4Cl)c3Cl)CC2=O)CCO1 | 2240 | 204 | 28.4 | –
18 | – | – | – | – | – | – | – | – | – | – | – | – | – | – | – | Active | C[C@@]1(c2cccc(-c3cccc(Cl)c3)c2Cl)CCNC(=N)N1 | – | – | – | –
19 | 25 | 3.5 | 9.9 | 246 | > 1500 | – | – | – | – | – | – | – | – | – | – | – | C[C@@H]1C[C@H](N2C(=N)N[C@](C)(c3cccc(-c4cccc(Cl)c4)c3Cl)CC2=O)CC[C@@H]1O | 47.3 | 4.7 | 40.9 | –
